Measurements taken from patent publication US6673834B2, “Hydroperylene derivatives” (priority 2001, dated 2004).
Read-outs that look alike come from different tables or passages of the source.

Columns and labels:
thrombocytes = test: Test for inhibition of thrombocyte aggregation (turbidimetric, Born; aggregometer PAP 4); assay type: cell-based; details: read-out: IC50 (platelet aggregation)
Text: The inhibition of platelet aggregation can be measured, inter alia, by determining platelet aggregation turbimetrically as described by Born (Born, GV, Nature, 1962,194: 927-929).
(§1) Principle of the test: the method is based on the property that the optical density of a particle suspension depends on the […]. After a platelet suspension has been stimulated, the platelets begin to aggregate. This leads to the appearance of relatively large platelet aggregates and to an increase in light transmission. This increase is registered photometrically, and recorded in curve form, continuously. The degrees to which the thrombocytes can be aggregated, or to which this aggregation can be inhibited, can be deduced from the changes in light transmission. The method of staining cells with calcein was used for determining cytotoxicity (Hollo Z et al., Biochim Biophys Acta 11;1191(2):384-8, 1994). Living cells incorporate the substrate calcein acetoxymethyl ester (C-AM), which is hydrolyzed in the cells by nonspecific esterases. […] In the living cell, it is converted into the fluorescent hydrolysis product and the vitality of the cells can be measured on the basis of the fluorescence (λex:485 nm/λem:538 nm).
By way of example, Table 2 summarizes the inhibitory effects of some hydroperylene derivatives as IC50 values. The IC50 value indicates the concentration which inhibits thrombocyte aggregation by 50% under defined conditions.
Test for Inhibition of Thrombocyte Aggregation
The assay was carried out as follows:
Final concentration of activator: 0.05 U of thrombin/ml or 1 μg of collagen/ml
Aggregation in Aggregometer (PAP 4)
Cell number, 3×10^5 thrombocytes/μl
The blank value for the channels of the aggregometer is first of all adjusted using buffer. The thrombocytes are then pipetted into microtubes and, after the thrombocytes have been added, heated at 37° C. for a few minutes in the aggregometer. After a magnetic stirrer has been added to each reaction tube, the substances, and CaCl2, are added and a start is made in recording the course of the curve in the aggregometer. After 2 minutes of incubation, the activator, or buffer in the case of the control, is added. The course of the curve is then recorded for a further 6 min at 37° C. and at a stirrer speed of 1050 revolutions per minute.

[1] = Solubility of thioperylenol; assay type: physicochemical
Text: (§2) The physicochemical and spectroscopic properties of thioperylenol can be summarized as follows:
(§3) Brownish crystals which are soluble in medium-polar and polar organic solvents and soluble in aqueous neutral buffers. Stable in neutral and mildly acidic, non-oxidizing medium but unstable in strongly acidic and strongly alkaline solution.

[2] = Stability of thioperylenol in solution; assay type: physicochemical
Text: as §2, §3

cells = test: Cytotoxicity by staining cells with calcein (calcein AM fluorescence); assay type: cell-based; details: read-out: IC50 (toxicity)
Text: as §1

[3] = cell toxicity, calcein AM staining
[4] = concentration which inhibits thrombocyte aggregation by 50%, activator 0.05 U of thrombin/ml or 1 μg of collagen/ml, 37° C.

| Molecule | IC50 (cells; [3]) | IC50 (thrombocytes; [4]) | further results |
| --- | --- | --- | --- |
| O=C1CC(SCC(O)C(=O)O)[C@]2(O)c3c(ccc(O)c31)-c1ccc(O)c3c1C2C1OC1C3O (some centres unmarked) [Thioperylenol, thioperylenol] | 61 µM |  | IC50 (thrombocytes; Platelet, concentration which inhibits thrombocyte aggregation by 50%, activator 0.05 U of thrombin/ml or 1 μg of collagen/ml, 37° C.): 7.2 µM; Solubility ([1]; aqueous neutral buffers): soluble; Solubility ([1]; medium-polar and polar organic solvents): soluble; Stability ([2]; neutral and mildly acidic, non-oxidizing medium): Stable; Stability ([2]; strongly acidic and strongly alkaline solution): unstable |
| O=C1C[C@@H](O)[C@H]2c3c(ccc(O)c31)-c1ccc(O)c3c1[C@]2(O)C=CC3=O (stereo in doubt) [Alterperylenol] |  |  | IC50 (thrombocytes; Platelet): 1.6 µM; IC50 (cells): > 100 µM |
| Altertoxin III | 20 µM | 6.1 µM |  |
| O=C1C[C@H](O)[C@@H]2c3c(ccc(O)c31)-c1ccc(O)c3c1[C@@]2(O)CCC3=O [Altertoxin I] | > 100 µM | 29 µM |  |
| O=C1CCC2(O)c3c(ccc(O)c31)-c1ccc(O)c3c1C2C1OC1C3=O (centres unmarked) [Altertoxin II] | 10 µM | 2.6 µM |  |
